Reference: PubChem BioAssay AID1259407 (Chemical Carcinogenesis Research Information System (CCRIS), 2018)
Active and inactive are the calls of the source. The rule behind the calls is not given here.

Tested on: CCRIS mutagenicity, Ames/micronucleus/aberration tests
Assay: CCRIS mutagenicity studies
[1] = Test System: AMES SALMONELLA TYPHIMURIUM, Strain/Indicator: TA98, Metabolic Activation: NONE, Method: STANDARD PLATE
[2] = Test System: AMES SALMONELLA TYPHIMURIUM, Strain/Indicator: TA100, Metabolic Activation: NONE, Method: STANDARD PLATE

## CC(C)[C@]12CC(=O)[C@H](C)[C@H]1C2
Test System: AMES SALMONELLA TYPHIMURIUM, Strain/Indicator: TA98, Metabolic Activation: HAMSTER LIVER S-9, AROCLOR 1254, Method: STANDARD PLATE
  mutagenic call: inactive; negative
[1]
  mutagenic call: inactive; negative
Test System: AMES SALMONELLA TYPHIMURIUM, Strain/Indicator: TA98, Metabolic Activation: RAT LIVER S-9, AROCLOR 1254, Method: STANDARD PLATE
  mutagenic call: inactive; negative
Test System: AMES SALMONELLA TYPHIMURIUM, Strain/Indicator: TA100, Metabolic Activation: HAMSTER LIVER S-9, AROCLOR 1254, Method: STANDARD PLATE
  mutagenic call: inactive; negative
[2]
  mutagenic call: inactive; negative
Test System: AMES SALMONELLA TYPHIMURIUM, Strain/Indicator: TA100, Metabolic Activation: RAT LIVER S-9, AROCLOR 1254, Method: STANDARD PLATE
  mutagenic call: inactive; negative
Test System: AMES SALMONELLA TYPHIMURIUM, Strain/Indicator: TA102, Metabolic Activation: HAMSTER LIVER S-9, AROCLOR 1254, Method: STANDARD PLATE
  mutagenic call: inactive; negative
Test System: AMES SALMONELLA TYPHIMURIUM, Strain/Indicator: TA102, Metabolic Activation: NONE, Method: STANDARD PLATE
  mutagenic call: inactive; negative
Test System: AMES SALMONELLA TYPHIMURIUM, Strain/Indicator: TA102, Metabolic Activation: RAT LIVER S-9, AROCLOR 1254, Method: STANDARD PLATE
  mutagenic call: inactive; negative
Test System: AMES SALMONELLA TYPHIMURIUM, Strain/Indicator: TA1535, Metabolic Activation: HAMSTER LIVER S-9, AROCLOR 1254, Method: STANDARD PLATE
  mutagenic call: inactive; negative
Test System: AMES SALMONELLA TYPHIMURIUM, Strain/Indicator: TA1535, Metabolic Activation: NONE, Method: STANDARD PLATE
  mutagenic call: inactive; negative
Test System: AMES SALMONELLA TYPHIMURIUM, Strain/Indicator: TA1535, Metabolic Activation: RAT LIVER S-9, AROCLOR 1254, Method: STANDARD PLATE
  mutagenic call: inactive; negative
Test System: AMES SALMONELLA TYPHIMURIUM, Strain/Indicator: TA1537, Metabolic Activation: HAMSTER LIVER S-9, AROCLOR 1254, Method: STANDARD PLATE
  mutagenic call: inactive; negative
Test System: AMES SALMONELLA TYPHIMURIUM, Strain/Indicator: TA1537, Metabolic Activation: NONE, Method: STANDARD PLATE
  mutagenic call: inactive; negative
Test System: AMES SALMONELLA TYPHIMURIUM, Strain/Indicator: TA1537, Metabolic Activation: RAT LIVER S-9, AROCLOR 1254, Method: STANDARD PLATE
  mutagenic call: inactive; negative
Test System: Mouse lymphoma, Strain/Indicator: L5178Y (tk+/tk-), Metabolic Activation: None, Method: Suspension/plate
  mutagenic call: inactive; negative
Test System: Mouse lymphoma, Strain/Indicator: L5178Y (tk+/tk-), Metabolic Activation: Rat, Liver, S-9, Aroclor 1254, Method: Suspension/plate
  mutagenic call: active; equivocal (previous evaluation positive)

## CCC(C)c1ccc(/C=C/c2ccc([N+](=O)[O-])cc2)cc1 (stereo not drawn)
[1]
  mutagenic call: active; positive
Test System: AMES SALMONELLA TYPHIMURIUM, Strain/Indicator: TA98, Metabolic Activation: RAT, LIVER, S-9, AROCLOR, Method: STANDARD PLATE
  mutagenic call: active; positive
[2]
  mutagenic call: inactive; negative
Test System: AMES SALMONELLA TYPHIMURIUM, Strain/Indicator: TA100, Metabolic Activation: RAT, LIVER, S-9, AROCLOR, Method: STANDARD PLATE
  mutagenic call: active; positive

## Clc1ccc(C(c2ccccc2Cl)C(Cl)(Cl)Cl)cc1 (stereo not drawn)
End Point: IN VIVO CHROMOSOMAL ABERRATIONS, Test System: MAMMARY GLAND CELLS USING DUAL PROBE FISH, Species: RAT, Strain/Sex: SPRAGUE-DAWLEY/FEMALE, Route: SUBCUTANEOUS INJECTION
  mutagenic call: active; positive (polyploidy)
End Point: IN VIVO MICRONUCLEUS, Test System: MAMMARY GLAND CELLS, Species: RAT, Strain/Sex: SPRAGUE-DAWLEY/FEMALE, Route: SUBCUTANEOUS INJECTION
  mutagenic call: inactive; negative

## Fc1ccnc2ccccc12
Test System: AMES SALMONELLA TYPHIMURIUM, Strain/Indicator: TA100, Metabolic Activation: RAT, LIVER, S-9, AROCLOR 1254, Method: PREINCUBATION
  mutagenic call: active; positive
Test System: UDS RODENT HEPATOCYTES, Strain/Indicator: THY INCORP (NON-S-PHASE), Metabolic Activation: NONE, Method: AUTORADIOGRAPHY
  mutagenic call: inactive; negative

## c1ccc2c(c1)cc1ccc3c4ccccc4cc4ccc2c1c43
Test System: HUMAN H1A1V2 CELLS, Strain/Indicator: TK LOCUS, Metabolic Activation: NONE, Method: SUSPENSION/PLATE
  mutagenic call: active; positive

## Cc1ccc(C)c(NO)c1
Test System: AMES SALMONELLA TYPHIMURIUM, Strain/Indicator: TA100, Metabolic Activation: NONE, Method: PREINCUBATION
  mutagenic call: active; positive
Test System: AMES SALMONELLA TYPHIMURIUM, Strain/Indicator: TA100, Metabolic Activation: RAT, LIVER, S-9, PCB, Method: PREINCUBATION
  mutagenic call: active; positive
